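Where inhibition never reached the appropriate level, the endpoint shown equals the highest concentration tested. Otherwise, values were interpolated linearly from a five-concentration, 48-hour dose response in 96-well plates. GI50 = concentration required for 50% inhibition of growth.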 Calls of active or inactive are those of the source. Cut-off read from the data, not from the text of the source: active = GI50 up to about 1.1 µM and inactive = higher.
Key:
Experiment in all cases: DTP human tumour cell line panel, 48 h
NCI-H460 = tested on: NCI-H460
NCI-H522 = tested on: NCI-H522
COLO 205 = tested on: COLO 205
NCI-H226 = tested on: NCI-H226
M19-MEL = tested on: M19-MEL
OVCAR-5 = tested on: OVCAR-5
DLD-1 = tested on: DLD-1
U-251 = tested on: U-251
SK-OV-3 = tested on: SK-OV-3
DMS-114 = tested on: DMS-114
SF-268 = tested on: SF-268
SN12C = tested on: SN12C
RXF 393 = tested on: RXF 393
SK-MEL-5 = tested on: SK-MEL-5
KM12 = tested on: KM12
SNB-19 = tested on: SNB-19
OVCAR-8 = tested on: OVCAR-8
HCC 2998 = tested on: HCC 2998
Malme-3M = tested on: Malme-3M
SNB-75 = tested on: SNB-75
786-0 = tested on: 786-0
SW-620 = tested on: SW-620
SK-MEL-2 = tested on: SK-MEL-2
ACHN = tested on: ACHN
SK-MEL-28 = tested on: SK-MEL-28
LXFL 529 = tested on: LXFL 529
HT-29 = tested on: HT-29
HOP-18 = tested on: HOP-18
HCT-116 = tested on: HCT-116
A498 = tested on: A498
TK-10 = tested on: TK-10
OVCAR-3 = tested on: OVCAR-3
CCRF-CEM = tested on: CCRF-CEM
DMS-273 = tested on: DMS-273
MOLT-4 = tested on: MOLT-4
KM-20L2 = tested on: KM-20L2
IGROV-1 = tested on: IGROV-1
UACC-257 = tested on: UACC-257
OVCAR-4 = tested on: OVCAR-4
EKVX = tested on: EKVX
SF-295 = tested on: SF-295
CAKI-1 = tested on: CAKI-1
SF-539 = tested on: SF-539
M14 = tested on: M14
HOP-92 = tested on: HOP-92
SNB-78 = tested on: SNB-78
HCT-15 = tested on: HCT-15
LOX IMVI = tested on: LOX IMVI
UACC-62 = tested on: UACC-62
UO-31 = tested on: UO-31
K562 = tested on: K562
A549 = tested on: A549
NCI-H23 = tested on: NCI-H23
HOP-62 = tested on: HOP-62
SR = tested on: SR
RPMI-8226 = tested on: RPMI-8226
HL-60 = tested on: HL-60
XF498 = tested on: XF498

Compound: N#CC1(Cc2ccccc2[N+](=O)[O-])c2ccccc2C2C(N1C(=O)c1ccccc1)C2(Cl)Cl (stereo unspecified)
- GI50 (NCI-H460): > 100 µM (inactive)
- GI50 (NCI-H522): > 100 µM (inactive)
- GI50 (COLO 205): > 100 µM (inactive)
- GI50 (NCI-H226): > 100 µM (inactive)
- GI50 (M19-MEL): > 100 µM (inactive)
- GI50 (OVCAR-5): > 100 µM (inactive)
- GI50 (DLD-1): 3.6 µM (inactive)
- GI50 (U-251): > 100 µM (inactive)
- GI50 (SK-OV-3): > 100 µM (inactive)
- GI50 (DMS-114): > 100 µM (inactive)
- GI50 (SF-268): > 100 µM (inactive)
- GI50 (SN12C): > 100 µM (inactive)
- GI50 (RXF 393): > 100 µM (inactive)
- GI50 (SK-MEL-5): > 100 µM (inactive)
- GI50 (KM12): > 100 µM (inactive)
- GI50 (SNB-19): > 100 µM (inactive)
- GI50 (OVCAR-8): > 100 µM (inactive)
- GI50 (HCC 2998): 3.76 µM (inactive)
- GI50 (Malme-3M): > 100 µM (inactive)
- GI50 (SNB-75): 52.6 µM (inactive)
- GI50 (786-0): > 100 µM (inactive)
- GI50 (SW-620): > 100 µM (inactive)
- GI50 (SK-MEL-2): > 100 µM (inactive)
- GI50 (ACHN): 13.2 µM (inactive)
- GI50 (SK-MEL-28): > 100 µM (inactive)
- GI50 (LXFL 529): > 100 µM (inactive)
- GI50 (HT-29): > 100 µM (inactive)
- GI50 (HOP-18): > 100 µM (inactive)
- GI50 (HCT-116): > 100 µM (inactive)
- GI50 (A498): 78 µM (inactive)
- GI50 (TK-10): > 100 µM (inactive)
- GI50 (OVCAR-3): > 100 µM (inactive)
- GI50 (CCRF-CEM): > 100 µM (inactive)
- GI50 (DMS-273): 28.2 µM (inactive)
- GI50 (MOLT-4): > 100 µM (inactive)
- GI50 (KM-20L2): 7.19 µM (inactive)
- GI50 (IGROV-1): > 100 µM (inactive)
- GI50 (UACC-257): > 100 µM (inactive)
- GI50 (OVCAR-4): 13.2 µM (inactive)
- GI50 (EKVX): > 100 µM (inactive)
- GI50 (SF-295): > 100 µM (inactive)
- GI50 (CAKI-1): > 100 µM (inactive)
- GI50 (SF-539): > 100 µM (inactive)
- GI50 (M14): > 100 µM (inactive)
- GI50 (HOP-92): > 100 µM (inactive)
- GI50 (SNB-78): 77.3 µM (inactive)
- GI50 (HCT-15): > 100 µM
- GI50 (LOX IMVI): > 100 µM (inactive)
- GI50 (UACC-62): > 100 µM (inactive)
- GI50 (UO-31): > 100 µM (inactive)
- GI50 (K562): > 100 µM (inactive)
- GI50 (A549): > 100 µM (inactive)
- GI50 (NCI-H23): > 100 µM (inactive)

Compound: COc1ccc(/C=C/C(=O)c2cc(C(=O)O)c(OC)cc2OC)cc1OC
- GI50 (NCI-H460): > 100 µM (inactive)
- GI50 (NCI-H522): > 100 µM (inactive)
- GI50 (COLO 205): > 100 µM (inactive)
- GI50 (NCI-H226): > 100 µM (inactive)
- GI50 (M19-MEL): > 100 µM (inactive)
- GI50 (OVCAR-5): > 100 µM (inactive)
- GI50 (DLD-1): > 100 µM (inactive)
- GI50 (U-251): > 100 µM (inactive)
- GI50 (DMS-114): > 100 µM (inactive)
- GI50 (SF-268): > 100 µM (inactive)
- GI50 (SN12C): > 100 µM (inactive)
- GI50 (SK-MEL-5): > 100 µM (inactive)
- GI50 (KM12): > 100 µM (inactive)
- GI50 (SNB-19): > 100 µM (inactive)
- GI50 (OVCAR-8): > 100 µM (inactive)
- GI50 (SNB-75): > 100 µM (inactive)
- GI50 (786-0): > 100 µM (inactive)
- GI50 (SW-620): > 100 µM (inactive)
- GI50 (ACHN): > 100 µM (inactive)
- GI50 (HOP-62): > 100 µM (inactive)
- GI50 (SK-MEL-28): > 100 µM (inactive)
- GI50 (LXFL 529): > 100 µM (inactive)
- GI50 (HT-29): > 100 µM (inactive)
- GI50 (HOP-18): > 100 µM (inactive)
- GI50 (SR): > 100 µM (inactive)
- GI50 (HCT-116): > 100 µM (inactive)
- GI50 (A498): > 100 µM (inactive)
- GI50 (RPMI-8226): > 100 µM (inactive)
- GI50 (CCRF-CEM): > 100 µM (inactive)
- GI50 (DMS-273): > 100 µM (inactive)
- GI50 (MOLT-4): > 100 µM (inactive)
- GI50 (KM-20L2): > 100 µM (inactive)
- GI50 (IGROV-1): > 100 µM (inactive)
- GI50 (UACC-257): > 100 µM (inactive)
- GI50 (OVCAR-4): > 100 µM (inactive)
- GI50 (EKVX): > 100 µM (inactive)
- GI50 (SF-295): > 100 µM (inactive)
- GI50 (HL-60): > 100 µM (inactive)
- GI50 (SF-539): > 100 µM (inactive)
- GI50 (M14): > 100 µM (inactive)
- GI50 (HOP-92): > 100 µM (inactive)
- GI50 (SNB-78): > 100 µM (inactive)
- GI50 (HCT-15): > 100 µM
- GI50 (LOX IMVI): > 100 µM (inactive)
- GI50 (UACC-62): > 100 µM (inactive)
- GI50 (K562): > 100 µM (inactive)
- GI50 (A549): > 100 µM (inactive)
- GI50 (NCI-H23): > 100 µM (inactive)

Compound: c1cncc(C2c3[nH]c4ccccc4c3CCN2CCCN2CCCCC2)c1 (stereo unspecified)
- GI50 (NCI-H460): > 100 µM (inactive)
- GI50 (NCI-H522): > 100 µM (inactive)
- GI50 (COLO 205): 84.3 µM (inactive)
- GI50 (NCI-H226): > 100 µM (inactive)
- GI50 (M19-MEL): > 100 µM (inactive)
- GI50 (OVCAR-5): > 100 µM (inactive)
- GI50 (DLD-1): > 100 µM (inactive)
- GI50 (U-251): > 100 µM (inactive)
- GI50 (SK-OV-3): > 100 µM (inactive)
- GI50 (DMS-114): > 100 µM (inactive)
- GI50 (SN12C): > 100 µM (inactive)
- GI50 (RXF 393): 53.6 µM (inactive)
- GI50 (SK-MEL-5): 37.2 µM (inactive)
- GI50 (KM12): > 100 µM (inactive)
- GI50 (SNB-19): > 100 µM (inactive)
- GI50 (OVCAR-8): > 100 µM (inactive)
- GI50 (HCC 2998): > 100 µM (inactive)
- GI50 (Malme-3M): 29.7 µM (inactive)
- GI50 (SNB-75): > 100 µM (inactive)
- GI50 (786-0): > 100 µM (inactive)
- GI50 (SW-620): > 100 µM (inactive)
- GI50 (SK-MEL-2): > 100 µM (inactive)
- GI50 (ACHN): > 100 µM (inactive)
- GI50 (HOP-62): > 100 µM (inactive)
- GI50 (SK-MEL-28): 20.3 µM (inactive)
- GI50 (LXFL 529): 68.7 µM (inactive)
- GI50 (HT-29): > 100 µM (inactive)
- GI50 (SR): > 100 µM (inactive)
- GI50 (HCT-116): > 100 µM (inactive)
- GI50 (A498): > 100 µM (inactive)
- GI50 (TK-10): > 100 µM (inactive)
- GI50 (RPMI-8226): > 100 µM (inactive)
- GI50 (OVCAR-3): 51.1 µM (inactive)
- GI50 (DMS-273): > 100 µM (inactive)
- GI50 (MOLT-4): > 100 µM (inactive)
- GI50 (XF498): 57.4 µM (inactive)
- GI50 (KM-20L2): > 100 µM (inactive)
- GI50 (IGROV-1): > 100 µM (inactive)
- GI50 (UACC-257): 60.7 µM (inactive)
- GI50 (OVCAR-4): > 100 µM (inactive)
- GI50 (EKVX): > 100 µM (inactive)
- GI50 (SF-295): > 100 µM (inactive)
- GI50 (CAKI-1): > 100 µM (inactive)
- GI50 (HL-60): > 100 µM (inactive)
- GI50 (SF-539): > 100 µM (inactive)
- GI50 (M14): 18.6 µM (inactive)
- GI50 (HOP-92): > 100 µM (inactive)
- GI50 (SNB-78): > 100 µM (inactive)
- GI50 (HCT-15): > 100 µM
- GI50 (LOX IMVI): > 100 µM (inactive)
- GI50 (UACC-62): 92.9 µM (inactive)
- GI50 (UO-31): 81.1 µM (inactive)
- GI50 (K562): > 100 µM (inactive)
- GI50 (A549): > 100 µM (inactive)
- GI50 (NCI-H23): > 100 µM (inactive)
